This is an account of results in patent US20230099344A1, “COMPOUNDS AND METHODS FOR THE TARGETED DEGRADATION OF IRAK-4” (Arvinas Operations, Inc., priority 2021, published 2023).

For experiment [1], the target named is T1, IRAK-4 (Homo sapiens, UniProt Q9NWZ3).
T1 sequence (Q9NWZ3 1-460): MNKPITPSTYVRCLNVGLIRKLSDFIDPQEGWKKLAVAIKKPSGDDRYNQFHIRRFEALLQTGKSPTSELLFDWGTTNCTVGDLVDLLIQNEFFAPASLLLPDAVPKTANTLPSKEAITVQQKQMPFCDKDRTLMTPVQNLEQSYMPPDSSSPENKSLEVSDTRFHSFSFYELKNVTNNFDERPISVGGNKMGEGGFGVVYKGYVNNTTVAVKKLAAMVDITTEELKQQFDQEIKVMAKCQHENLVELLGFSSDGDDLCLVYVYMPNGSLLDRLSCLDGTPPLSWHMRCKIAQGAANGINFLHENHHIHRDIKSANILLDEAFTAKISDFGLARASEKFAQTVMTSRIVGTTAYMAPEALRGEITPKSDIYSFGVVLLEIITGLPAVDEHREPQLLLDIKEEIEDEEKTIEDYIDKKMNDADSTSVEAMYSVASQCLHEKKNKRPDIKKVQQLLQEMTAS
Kind of experiment: IRAK-4 ELISA, PBMC degradation. The class given is cell-based. The arrangement: endogenous in cells; host or cells: PBMC. To be noted: treated overnight. Put shortly:
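Steps: seed cells (OCI-Ly10 1×10^6/ml; PBMC 2×10^6/ml); add compound the same day; incubate overnight; lyse; quantify IRAK-4 by matched-pair ELISA.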
On the technique in general: An ELISA detects its analyte on a solid surface through an enzyme-linked reagent.

Experiment [2] concerns the target T1, IRAK-4. As to the kind of experiment: IRAK-4 ELISA, OCI-Ly10 degradation. It counts as cell-based. To be noted: treated overnight; for Dmax: OCI-Ly10, OCI-Ly10 cells; for DC50 / OCI-LY10 Dmax: OCI-Ly10 cells. Details: endogenous in cells. As to the method:
Reagents: Human IRAK-4 Matched Antibody Pair Kit (Abcam ab218182) and ELISA Accessory Pack (Abcam ab210905).
Cell Treatment and Lysis:
1. OCI-Ly10: 200,000 cells are seeded at 1×10^6/ml in 96-well U-bottom plates 200 ul per well, treated with compound the same day. Incubate overnight. 2. PBMC: 800,000 cells are seeded at 2×10^6/ml in 96-well U-bottom deep-well plates, 400 ul per well, treated with compound the same day. Incubate overnight.
Cell lysate is collected and analyzed by ELISA for IRAK-4 levels.

One may read the DC50 as the midpoint of the concentration-degradation curve. Read a high DC50 as degradation only at high concentration. The term Dmax denotes the greatest extent of degradation seen. In the case of `CC(C)Oc1cc2c(cc1NC(=O)c1cnn3cccnc13)CN(C1CCN(CC3(F)CCN(c4ccc5c(c4)C(=O)N(C4CCC(=O)NC4=O)C5=O)CC3)CC1)C2=O` (centres unmarked) [Example 58], on IRAK-4 [1], the DC50 was 0.001 to 0.005 µM; the Dmax was at least 90%; the “PBMC DC90” value is “B (B represents a DC90 value ≥10.0 nM and <25.0 nM)”. At IRAK-4 [2], this compound yielded a Dmax of at least 90% and a DC50 of 0.01 to 0.05 µM.
As for `CC(C)(C1CCN(c2ccc3c(c2)C(=O)N(C2CCC(=O)NC2=O)C3=O)CC1)N1CCC(N2Cc3cc(NC(=O)c4cnn5cccnc45)c(OCC4CC4)cc3C2=O)CC1` (centres unmarked) [Example 87], at IRAK-4 [1], the DC50 fell in the range of 0.005 to 0.01 µM, the Dmax was 80 to 90% and the “PBMC DC90” value is listed as “D (D represents a DC90 value ≥50 nM)”. On IRAK-4 [2], this compound displayed a Dmax of at least 90% and a DC50 of 0.05 to 0.1 µM.
Regarding `CC(C)Oc1cc2c(cc1NC(=O)c1cnn3cccnc13)CN([C@H]1CCN(CC3CCN(c4ccc5c(c4)C(=O)N(C4CCC(=O)NC4=O)C5=O)CC3)C[C@@H]1F)C2=O` (some centres unmarked) [Example 91], at IRAK-4 [1], the DC50 lay in the range of 0.001 to 0.005 µM; the Dmax is at least 90%; the “PBMC DC90” value is “B (B represents a DC90 value ≥10.0 nM and <25.0 nM)”. Further, on IRAK-4 [2], the Dmax was at least 90% and the DC50 lay in the range of 0.01 to 0.05 µM.
In the case of `O=C1CCC(N2C(=O)c3ccc(N4CCN(CCN5CCC([C@H](F)CN6Cc7cc(NC(=O)c8cnn9cccnc89)c(N8CCOCC8)cc7C6=O)CC5)CC4)cc3C2=O)C(=O)N1` (some centres unmarked) [Example 93], at IRAK-4 [1], the DC50 was under 0.001 µM, the Dmax is at least 90% and the “PBMC DC90” value is “A (A represents a DC90 value <10.0 nM)”. At IRAK-4 [2], the Dmax was at least 90% and the DC50 lay in the range of 0.01 to 0.05 µM.
Consider `O=C1CCC(N2C(=O)c3ccc(N4CCC(CN5CC[C@H](N6Cc7cc(NC(=O)c8cnn9cccnc89)c(N8CCOCC8)cc7C6=O)[C@@H](F)C5)CC4)cc3C2=O)C(=O)N1` (some centres unmarked) [Example 94], for which, on IRAK-4 [1], the DC50 was 0.001 to 0.005 µM, the Dmax was at least 90% and the “PBMC DC90” value is listed as “A (A represents a DC90 value <10.0 nM)”. Besides, at IRAK-4 [2], the Dmax was in the range of 70 to 80% and the DC50 lay in the range of 0.01 to 0.05 µM.
On IRAK-4 [2], `O=C1CCC(N2C(=O)c3ccc(N4CC(COC[C@H](F)Cn5cc6cc(NC(=O)c7cnn8cccnc78)c(OCC7CC7)cc6n5)C4)cc3C2=O)C(=O)N1` (some centres unmarked) [Example 172] had a Dmax of 80 to 90% and a DC50 of at least 0.1 µM.
For the compound `O=C1CCC(N2C(=O)c3ccc(C#CCN4CCC(n5cc6cc(NC(=O)c7cnn8cccnc78)c(OCC7CC7)cc6n5)CC4)cc3C2=O)C(=O)N1` (centres unmarked) [Example 178], at IRAK-4 [2], the Dmax was 80 to 90% and the DC50 was at least 0.1 µM.
At IRAK-4 [2], `O=C1CCC(N2Cc3cc(C#CCN4CCC(n5cc6cc(NC(=O)c7cnn8cccnc78)c(OCC7CC7)cc6n5)CC4)ccc3C2=O)C(=O)N1` (centres unmarked) [Example 179] registered a Dmax of under 70% and a DC50 of at least 0.1 µM.
On IRAK-4 [2], `O=C1CCC(N2C(=O)c3ccc(N4CCN(CCOC[C@H](F)Cn5cc6cc(NC(=O)c7cnn8cccnc78)c(OCC7CC7)cc6n5)CC4)cc3C2=O)C(=O)N1` (some centres unmarked) [Example 180] displayed a Dmax of at least 90% and a DC50 of 0.01 to 0.05 µM.
At IRAK-4 [2], `O=C1CCC(N2C(=O)c3ccc(N4CCC(COC[C@H](F)Cn5cc6cc(NC(=O)c7cnn8cccnc78)c(OCC7CC7)cc6n5)CC4)cc3C2=O)C(=O)N1` (some centres unmarked) [Example 181] yielded a Dmax of 80 to 90% and a DC50 of at least 0.1 µM.
Consider `COc1cc2nn(C3CCN(CC4CCN(c5ccc6c(c5)C(=O)N(C5CCC(=O)NC5=O)C6=O)CC4)CC3)cc2cc1NC(=O)c1cnn2cccnc12` (centres unmarked) [Example 201], for which, on IRAK-4 [2], the Dmax was at least 90% and the DC50 is under 0.01 µM.
For the compound `COc1cc2nn(C3CCN(CC4CN(c5ccc6c(c5)C(=O)N(C5CCC(=O)NC5=O)C6=O)C4)CC3)cc2cc1NC(=O)c1cnn2cc(Cl)cnc12` (centres unmarked) [Example 203], on IRAK-4 [2], the Dmax was at least 90% and the DC50 was under 0.01 µM.
At IRAK-4 [2], `COc1cc2nn(C3CCN(CC#Cc4ccc5c(c4)C(=O)N(C4CCC(=O)NC4=O)C5=O)CC3)cc2cc1NC(=O)c1cnn2cccnc12` (centres unmarked) [Example 204] came in with a Dmax of under 70% and a DC50 of 0.05 to 0.1 µM.
`COc1cc2nn(C3CCN(C4CN(c5ccc6c(c5)C(=O)N(C5CCC(=O)NC5=O)C6=O)C4)CC3)cc2cc1NC(=O)c1cnn2cccnc12` (centres unmarked) [Example 205]: on IRAK-4 [2], the Dmax fell in the range of 80 to 90% and the DC50 is under 0.01 µM.
Taken in the same sequence, the figures for `COc1cc2nn(C3CCN(C(C)(C)C4CN(c5ccc6c(c5)C(=O)N(C5CCC(=O)NC5=O)C6=O)C4)CC3)cc2cc1NC(=O)c1cnn2cccnc12` (centres unmarked) [Example 206] were at least 90% and under 0.01 µM.
For `COc1cc2nn([C@H]3CCN(CC4CCN(c5ccc6c(c5)C(=O)N(C5CCC(=O)NC5=O)C6=O)CC4)C[C@@H]3F)cc2cc1NC(=O)c1cnn2cccnc12` (some centres unmarked) [Example 208], in that order: at least 90% and 0.01 to 0.05 µM.
`COc1cc2nn(C3CCN(CC4CN(c5ccc6c(c5)C(=O)N(C5CCC(=O)NC5=O)C6=O)C4)C3)cc2cc1NC(=O)c1cnn2cccnc12` (centres unmarked) [Example 209] displayed a DC50 on IRAK-4 [2] of at least 0.1 µM.
The compound `COc1cc2nn(C3CCN(CC4CCN(c5ccc6c(c5)C(=O)N(C5CCC(=O)NC5=O)C6=O)CC4)C3)cc2cc1NC(=O)c1cnn2cccnc12` (centres unmarked) [Example 210] showed a DC50 on IRAK-4 [2] of at least 0.1 µM.
On IRAK-4 [2], `COc1cc2nn([C@H]3CC[C@@H](OC4CN(c5ccc6c(c5)C(=O)N(C5CCC(=O)NC5=O)C6=O)C4)CC3)cc2cc1NC(=O)c1cnn2cccnc12` (some centres unmarked) [Example 211] returned a DC50 of at least 0.1 µM.
Turning to `COc1cc2nn(C[C@@H](F)COCC3CCN(c4ccc5c(c4)C(=O)N(C4CCC(=O)NC4=O)C5=O)CC3)cc2cc1NC(=O)c1cnn2cccnc12` (some centres unmarked) [Example 213], at IRAK-4 [2], the Dmax was under 70% and the DC50 is at least 0.1 µM.
With `O=C1CCC(NC(=O)c2ccc(N3CCC(CN4CCC(n5cc6cc(NC(=O)c7cnn8cc(Cl)cnc78)c(OCC7CC7)cc6n5)CC4)CC3)cc2F)C(=O)N1` (centres unmarked) [Example 289], on IRAK-4 [2], the Dmax was at least 90% and the DC50 lay within 0.01 to 0.05 µM.
Take `O=C1CCC(NC(=O)c2ccc(N3CCC(CN4CCC(n5cc6cc(NC(=O)c7cnn8cccnc78)c(OCC7CC7)cc6n5)CC4)CC3)cc2F)C(=O)N1` (centres unmarked) [Example 290]: on IRAK-4 [2], the DC50 was 0.05 to 0.1 µM and the “OCI-LY10 Dmax” value is reported as “D (D represents a Dmax value <70)”.
Turning to `COc1cc2nn(C3CCN(CC4CN(c5ccc(C(=O)NC6CCC(=O)NC6=O)c(F)c5)C4)CC3)cc2cc1NC(=O)c1cnn2cccnc12` (centres unmarked) [Example 294], at IRAK-4 [2], the Dmax was 80 to 90% and the DC50 fell in the range of 0.01 to 0.05 µM.
At IRAK-4 [2], `COc1cc2nn(C3CCN(CC4CCN(c5ccc(C(=O)NC6CCC(=O)NC6=O)c(F)c5)CC4)CC3)cc2cc1NC(=O)c1cnn2cccnc12` (centres unmarked) [Example 295] had a Dmax of at least 90% and a DC50 of 0.01 to 0.05 µM.
On IRAK-4 [2], `O=C1CCC(NC(=O)c2ccc(N3CC(CN4CCC(n5cc6cc(NC(=O)c7cnn8cc(Cl)cnc78)c(OCC7CC7)cc6n5)CC4)C3)cc2F)C(=O)N1` (centres unmarked) [Example 299] yielded a Dmax of at least 90% and a DC50 of 0.01 to 0.05 µM.
With `COc1cc2nn([C@H]3CC[C@@H](N(C)C4CN(c5ccc6c(c5)C(=O)N(C5CCC(=O)NC5=O)C6=O)C4)CC3)cc2cc1NC(=O)c1cnn2cccnc12` (some centres unmarked) [Example 333], on IRAK-4 [2], the DC50 was at least 0.1 µM.
For `COc1cc2nn([C@H]3CC[C@H](N(C)CC#Cc4ccc5c(c4)C(=O)N(C4CCC(=O)NC4=O)C5=O)CC3)cc2cc1NC(=O)c1cnn2cccnc12` (some centres unmarked) [Example 340], on IRAK-4 [2], the DC50 lay in the range of 0.01 to 0.05 µM and the “OCI-LY10 Dmax” value is on record as “A (A represents a Dmax value ≥90)”.
Compound `COc1cc2nn(C3CCN(CC4CN(c5ccc6c(c5)n(C)c(=O)n6C5CCC(=O)NC5=O)C4)CC3)cc2cc1NC(=O)c1cnn2cccnc12` (centres unmarked) [Example 380] came in with a DC50 at IRAK-4 [2] of at least 0.1 µM.
At IRAK-4 [2], `CC(C)(O)c1cc2nn(C3CCN(CC4CN(c5ccc6c(c5)C(=O)N(C5CCC(=O)NC5=O)C6=O)C4)CC3)cc2cc1NC(=O)c1cnn2cc(Cl)cnc12` (centres unmarked) [Example 391, 6-chloro-N-(2-(1-((1-(2-(2,6-dioxopiperidin-3-yl)-1,3-dioxoisoindolin-5-yl)azetidin-3-yl)methyl)piperidin-4-yl)-6-(2-hydroxypropan-2-yl)-2H-indazol-5-yl)pyrazolo[1,5-a]pyrimidine-3-carboxamide] had a Dmax of 80 to 90% and a DC50 of 0.01 to 0.05 µM.
As to `CC(C)(O)c1cc2nn(C3CCN(CC4CN(c5ccc6c(c5)C(=O)N(C5CCC(=O)NC5=O)C6=O)C4)CC3)cc2cc1NC(=O)c1cnn2cccnc12` (centres unmarked) [Example 392], on IRAK-4 [2], the greatest degradation seen (Dmax) lay within 70 to 80% and the DC50 was 0.05 to 0.1 µM.
Turning to `O=C1CCC(N2C(=O)c3ccc(CCN4CCC(N5Cc6cc(NC(=O)c7cnn8cccnc78)c(N7CCOCC7)nc6C5=O)CC4)cc3C2=O)C(=O)N1` (centres unmarked) [Example 405], at IRAK-4 [2], the Dmax was 70 to 80% and the DC50 was at least 0.1 µM.
For `O=C1CCC(N2C(=O)c3ccc(N4CC(CN5CCC(N6Cc7cc(NC(=O)c8cnn9cccnc89)c(N8CCOCC8)nc7C6=O)CC5)C4)cc3C2=O)C(=O)N1` (centres unmarked) [Example 406], in that order: under 70% and 0.05 to 0.1 µM.
